In ChEMBL document CHEMBL5050856, “Atf6 modulators and uses thereof” (2021):

Assays:
Format in all cases: cell-based
[1] = test system: U2OS; assay: Modulation of ATF6 activity in human U2OS cells at 1 uM in presence of ER stress inducer thapsigargin (Tg) measured by TRE-luciferase reporter assay relative to control
[2] = test system: U2OS; assay: Modulation of ATF6 activity in human U2OS cells at 10 uM in presence of ER stress inducer thapsigargin (Tg) measured by TRE-luciferase reporter assay relative to control
[3] = test system: U2OS; assay: Modulation of ATF6 activity in human U2OS cells at 10 uM measured by TRE-luciferase reporter assay relative to control
[4] = test system: U2OS; assay: Modulation of ATF6 activity in human U2OS cells at 1 uM measured by TRE-luciferase reporter assay relative to control

Row | Compound | Activity [1] | Activity [2] | Activity [3] | Activity [4] | Activity ([1]; filed as activator) | Activity ([2]; filed as activator)
1 | CC(c1ccc(C(F)(F)F)cc1C(F)(F)F)n1cc(C#Cc2nnc(-c3ccccn3)s2)cn1 (stereo in doubt; 2-1) | 50% | < 50% | – | – | – | –
2 | O=C(Nc1cnn(C2CCNC2)c1)c1cc(-c2ccco2)on1 (configuration not stated) | – | – | 0% | 0% | 125% | > 150%
3 | O=C(Nc1cnn(CC2CCCC2)c1)c1cc(-c2ccco2)on1 | – | – | 0% | 0% | > 150% | > 150%
4 | CC(C1CCCC1)n1cc(NC(=O)c2cc(-c3ccco3)on2)cn1 (stereo in doubt; 3-18) | – | – | 0% | 0% | 100% | 125%
5 | O=C(Nc1cnn(C2CCOC2)c1)c1cc(-c2ccccn2)on1 (stereo in doubt; 3-21) | – | – | 25% | 0% | > 150% | > 150%
6 | CC(C1CCOC1)n1cc(NC(=O)c2cc(-c3ccco3)on2)cn1 (stereo in doubt; 3-25) | – | – | 0% | 0% | 100% | > 150%
7 | CC(C1CCOC1)n1cc(NC(=O)c2cc(-c3ccco3)on2)cn1 (stereo in doubt; 3-26) | – | – | > 50% | 0% | > 150% | > 150%
8 | CC(c1ccc(C(F)(F)F)cc1C(F)(F)F)n1cc(C#Cc2nnc(-c3ccccn3)s2)cn1 (stereo in doubt; 2-2) | < 50% | < 50% | – | – | – | –
9 | O=C(Nc1cnn(C2CCOC2)c1)c1cc(-c2cccs2)on1 (stereo in doubt; 3-23) | – | – | > 50% | 25% | > 150% | > 150%
10 | O=C(Nc1cnn(C2CCOC2)c1)c1cc(-c2cccs2)on1 (stereo in doubt; 3-22) | – | – | 25% | 0% | 125% | > 150%
11 | O=C(Nc1cnn(C2CCOC2)c1)c1cc(-c2cccs2)on1 (stereo in doubt; 3-19) | – | – | 25% | 0% | > 150% | > 150%
12 | CC(C1CCCC1)n1cc(NC(=O)c2cc(-c3ccco3)on2)cn1 (stereo in doubt; 3-5) | – | – | 0% | 0% | 125% | > 150%
13 | O=C(Nc1cnn(Cc2ccc(C(F)(F)F)cc2C(F)(F)F)c1)c1cc(-c2ccco2)on1 | < 50% | < 50% | – | – | – | –
14 | O=C(Nc1cnn(C2CNC2)c1)c1cc(-c2ccco2)on1 | – | – | – | 0% | 125% | –
15 | CC(C1CCOC1)n1cc(NC(=O)c2cc(-c3ccco3)on2)cn1 (stereo in doubt; 3-27) | – | – | 25% | 0% | 100% | > 150%
16 | CC(c1ccc(C(F)(F)F)cc1C(F)(F)F)n1cc(/C=C\c2nnc(-c3ccccn3)s2)cn1 (stereo in doubt; 2-8) | – | 50% | – | – | 100% | –
17 | O=C(Nc1cnn(C2CCOC2)c1)c1cc(-c2ccccn2)on1 (stereo in doubt; 3-20) | – | – | 0% | 0% | 100% | > 150%
18 | FC(F)(F)c1ccc(Cn2cc(C#Cc3nnc(-c4ccccn4)s3)cn2)c(C(F)(F)F)c1 | 50% | 75% | – | – | – | –

Row | Compound | Activity [1] | Activity [2] | Activity [3] | Activity [4] | Activity ([1]; filed as activator) | Activity ([2]; filed as activator)
19 | CC(c1ccc(C(F)(F)F)cc1C(F)(F)F)n1cc(/C=C/c2nnc(-c3ccccn3)s2)cn1 (configuration not stated) | – | < 50% | – | – | 100% | –
20 | Cc1nn(C(C)c2ccc(C(F)(F)F)cc2C(F)(F)F)cc1C#Cc1nnc(-c2ccccn2)s1 (stereo in doubt; 2-23) | 75% | 50% | – | – | – | –
21 | O=C(Nc1cnn(C2CCCC2)c1)c1cc(-c2ccco2)on1 | – | – | 0% | 0% | > 150% | > 150%
22 | Cc1nn(C(C)c2ccc(C(F)(F)F)cc2C(F)(F)F)cc1C#Cc1nnc(-c2ccccn2)s1 (stereo in doubt; 2-11) | 50% | 50% | – | – | – | –
23 | CC(c1ccc(C(F)(F)F)cc1C(F)(F)F)n1cc(C#Cc2nnc(-c3cnccn3)s2)cn1 (stereo in doubt; 2-21) | 75% | 75% | – | – | – | –
24 | CC(c1ccc(C(F)(F)F)cc1C(F)(F)F)n1cc(C#Cc2nnc(-c3cnccn3)s2)cn1 (stereo in doubt; 2-10) | 50% | 75% | – | – | – | –
25 | CC(c1ccc(C(F)(F)F)cc1C(F)(F)F)n1cc(C#Cc2nnc(-c3cnccn3)s2)cn1 (stereo in doubt; 2-22) | 50% | 75% | – | – | – | –
26 | O=C(Nc1cnn(Cc2c(Cl)cncc2Cl)c1)c1cc(-c2ccco2)on1 | – | – | 0% | 0% | 100% | 125%
27 | CC(c1ccc(C(F)(F)F)cc1C(F)(F)F)n1cc(/C=C\c2nnc(-c3ccccn3)s2)cn1 (stereo in doubt; 2-6) | – | 50% | – | – | 100% | –
28 | CC(c1ccc(C(F)(F)F)cc1C(F)(F)F)n1cc(/C=C\c2nnc(-c3ccccn3)s2)cn1 (stereo in doubt; 2-7) | – | 75% | – | – | 100% | –
29 | CC(c1c(Cl)cccc1Cl)n1cc(C#Cc2nnc(-c3ccccn3)s2)cn1 (configuration not stated) | 75% | – | 0% | 0% | – | 100%
30 | CC(C1CCCC1)n1cc(NC(=O)c2cc(-c3ccco3)on2)cn1 (stereo in doubt; 3-17) | – | – | 0% | 0% | 125% | 125%
31 | O=C(Nc1cnn(Cc2ccc(C(F)(F)F)cc2)c1)c1cc(-c2ccco2)on1 | – | 75% | – | 0% | 100% | –
32 | CC(c1ccc(C(F)(F)F)cc1C(F)(F)F)n1cc(CCc2nnc(-c3ccccn3)s2)cn1 (configuration not stated) | 75% | < 50% | – | – | – | –
33 | CC(C1CCOC1)n1cc(NC(=O)c2cc(-c3ccco3)on2)cn1 (stereo in doubt; 3-24) | – | – | 25% | 0% | 100% | > 150%
34 | O=C(Nc1cnn(Cc2ccccc2)c1)c1cc(-c2ccco2)on1 | – | – | 25% | 0% | 100% | 125%
35 | Cc1nn(C(C)c2ccc(C(F)(F)F)cc2C(F)(F)F)cc1C#Cc1nnc(-c2ccccn2)s1 (stereo in doubt; 2-24) | < 50% | < 50% | – | – | – | –
